Results on three compounds are retold here after ChEMBL document CHEMBL1146245, “Antitumor agents. 258. Syntheses and evaluation of dietary antioxidant--taxoid conjugates as novel cytotoxic agents” (2007).

Common to all, as to type: functional
Assay [1] concerns 1A9. The assay can be described thus: Cytotoxicity against human 1A9 cells by sulforhodamine B assay.
Assay [2] deals with KB. The assay can be described thus: Cytotoxicity against human KB cells by sulforhodamine B assay.
The test system of assay [3] is A549. The assay can be described thus: Cytotoxicity against human A549 cells.
In assay [4] the test system is HCT-8. Description: Cytotoxicity against human HCT8 cells.
For assay [5], the system named is A-431. The assay can be described thus: Cytotoxicity against human A431 cells. The following applies: for EC50: read-out: ED50 (the source's name).
A short description of assay [6]: Cytotoxicity against MDR human KB-VIN cells expressing P-glycoprotein.
Setting [7] is: read-out: ED50 (the source's name).

Values after ≈ are worked out from the molar mass of the structure shown. Active and inactive are the calls of the source. The rule behind the calls is not given here.

Take `CC(=O)O[C@H]1C(=O)[C@@]2(C)[C@H]([C@H](OCc3ccccc3)[C@]3(O)C[C@H](OC(=O)[C@H](OC(=O)CCC(=O)Oc4c(C)c(C)c5c(c4C)OC(C)(CCC[C@@H](C)CCC[C@@H](C)CCCC(C)C)CC5)[C@@H](NCc4ccccc4)c4ccccc4)C(C)=C1C3(C)C)[C@]1(OC(C)=O)CO[C@@H]1C[C@@H]2O` (stereo partly drawn): the result in assay [1], in assay [2], in assay [3], in assay [4] and in assay [6] was inactive. For the same compound, in assay [5], the EC50 came to 0.1 µg/mL (≈ 0.0747 µM).

With `CC(=O)O[C@H]1C(=O)[C@@]2(C)[C@H]([C@H](OC(=O)c3ccccc3)[C@]3(O)C[C@H](OC(=O)[C@H](O)[C@@H](NC(=O)c4ccccc4)c4ccccc4)C(C)=C1C3(C)C)[C@]1(OC(C)=O)CO[C@@H]1C[C@@H]2O` [PACLITAXEL], the EC50 in assay [1] (setting [7]) stood at 0.001 µg/mL (≈ 0.00117 µM); in assay [2] (setting [7]) it was 0.002 µg/mL (≈ 0.00234 µM); in assay [3] (setting [7]), 0.02 µg/mL (≈ 0.0234 µM); in assay [4] (setting [7]) it was 0.06 µg/mL (≈ 0.0703 µM); in assay [5] it was 0.01 µg/mL (≈ 0.0117 µM); in assay [6] (KBVIN, read-out: ED50 (the source's name)), 0.2 µg/mL (≈ 0.234 µM).

On to `CC(=O)O[C@H]1C(=O)[C@]2(C)[C@@H](OC(=O)CCN3CCCCC3)C[C@H]3OC[C@@]3(OC(C)=O)[C@H]2[C@H](OCc2ccccc2)[C@]2(O)C[C@H](OC(=O)[C@H](OC(=O)CCC(=O)Oc3c(C)c(C)c4c(c3C)OC(C)(CCC[C@@H](C)CCC[C@@H](C)CCCC(C)C)CC4)[C@@H](NCc3ccccc3)c3ccccc3)C(C)=C1C2(C)C` (stereo partly drawn), for which the outcome in assay [1], in assay [2], in assay [3], in assay [4], in assay [5] and in assay [6] was inactive.
